Like-named read-outs stand apart in the source and are kept apart here.
Experiments:
[1] = Skin penetration of active agent on applicator pre-treated skin
[2] = In vitro permeation study, Franz-type diffusion cells, porcine ear skin; conditions: for Permeation rates of LC / Cumulative amount of LC: porcine ear skin, FMA; for Cumulative amount of LC: 8 h
[3] = In vivo permeation study: pharmacokinetics and absolute bioavailability of LC in rats; conditions: rat; for bioavailability / AUC(0-inf) / Cmax / Tmax: male, Sprague-Dawley, plasma; for AUC(0-inf): AUC0-∞; for Plasma concentration: intravenous 200 mg/rat
From the text: Male Sprague-Dawley rats (250 g±10 g) were equally divided into four groups (3 for each): group A, B, C and D. Before administration, all rats allowed to acclimatize for one week. One day before administration, rats were fasted overnight but allowed access to water. The hair of abdominal skin was carefully shaved by electric clippers for Group A and B. The rats in group A were pretreated by FMA with an area of 2 cm^2, the group B was untreated as a control. Then hydrogel patch containing LC 750 mg was applied to each rat by an adhesive housing for 6 h. Group C and Group D were control groups of oral and intravenous injection administration of 1 ml LC solution (200 mg/ml). A volume of 0.5 ml blood samples were taken before administration and at predetermined time intervals after LC administration. Plasma samples were immediately separated by centrifugation at 4000×g for 7 mins, and stored at −80° C. until assay.
Pretreatment method of samples: 120 μl of plasma was deproteinized with 600 μl of 0.6 M perchloric acid. The mixture was shaken for 30 s and allowed to stand in an ice bath for about 15 mins. After centrifuged at 4000×g for 7 mins, 500 μl of supernatant was transferred to a new tube in which 300 μl of 0.5 M K2CO3 was added, the mixture was shaken for 30 s and incubated in an ice-bath for 15 mins. Precipitate of KClO4 was removed by centrifugation at 4000×g for 7 mins, and 200 μl of the supernatant with free LC was separated for the assay.
Assays: The concentration of free LC in serum was determined by enzymatic assay kit with a limitation detection of 0.8 μg/ml.
Maximum plasma concentration (Cmax) and the time to reach this peak (Tmax) were directly identified from the pharmacokinetic curves (LC plasma concentration versus time). Area under the plasma concentration-time curve (AUC0→∞) was calculated by using the trapezoidal rule. Absolute bioavailability (A.B.) of LC after oral and FMA administration comparing with intravenous administration was calculated using the following equation:

[4] = In vitro permeation study, Franz-type diffusion cells, rat skin; assay type: in vitro ADME
From the text: Male Sprague-Dawley rats (220-250 g) were provided by Beijing Weitong Lihua Experimental Animals Ltd. Co. (Beijing China). Forty-eight hours before the test, rats were anesthetized by ether, and then the abdominal hair of each rat was shaved with an electric hair clipper. At the beginning of in vitro studies, animals were euthanized using carbon dioxide and full-thickness skins were removed. All research protocols adhered to the Guide for the Care and Use of Laboratory Animals (1996).
(§1) The method of the percutaneous absorption study adheres to the Test Guideline 428 of Organization for Economic Cooperation and Development (2004). The experiment was performed with a system employing Franz-type glass diffusion cells. The temperature in the receptor chamber was maintained at physiological temperature of 37.0±0.1° C. with an external, constant temperature circulating water bath.
(§2) Skin samples were treated using FMA delivery system. The insertion force was provided by the applicator. The skins without FMA treatment were used as control. The skin was mounted on a receptor chamber (2.5 ml) with the stratum corneum side facing upward into the donor chamber with effective permeation area of 0.66 cm^2. The receptor and donor chambers were filled with PBS solution, and the receptor fluid was continuously stirred with a magnetic bar at 280 rpm to maintain homogeneity. After 1 h equilibration, the solution in the receptor chamber was replaced with fresh PBS, and 300 μl of LC solution or 300 mg of LC gel was applied on the skin in the donor chamber, which was then covered with a parafilm to avoid any evaporation process. The samples of receptor cell were withdrawn through at predetermined time intervals and the receptor phase was immediately refreshed by equal volume of PBS buffer to keep a constant volume. The samples were analyzed by HPLC/UV. The results were expressed as the mean±S.D. (n=3-4 independent samples).
The quantitative determination of LC was performed by HPLC using methanol-190 mM KH2PO4 water (87:13) as mobile phase at a flow rate of 0.6 ml/min, by LC-2010A (Shimadzu, Japan). The injection volume was 20 μl. The analysis was performed in a YMC-Pack ODS-A C18 column with dimensions of 250 mm×4.6 mm i.d., 5 μm particle size (YMC Inc., USA). The column eluant was monitored at 225 nm. The detection limit is 20 μg ml^−1. The inter- and intra-day variability was less than 5%.
(§3) The cumulative amount of drug permeated per unit area versus time was plotted. The permeation rates of LC were calculated from the slope of linear portion of the plots. Data analysis was carried out with Microsoft Excel, Version 2000. Results were presented as the mean±S.D. (n=3-4 independent samples). Statistically significant differences were determined using the analysis of variance (ANOVA) with P<0.05 as a minimal level of significance.

[5] = In vitro permeation study, Franz-type diffusion cells, human cadaver skin; assay type: in vitro ADME
Procedure: Samples of full-thickness dermatomed human cadaver skins (≈800 μm) were obtained from the Burns Institute, 304th Clinical Department, The General Hospital of PLA, Trauma Center of Postgraduate Medical College and were free from overt pathology. The skin samples were kept frozen in liquid nitrogen and used within 3 months.
as §1
as §2, with “The samples of receptor cell were withdrawn through at predetermined time intervals and the receptor phase was immediately refreshed by equal volume of PBS buffer to keep a constant volume.” left out
The quantitative determination of LC was performed by HPLC using methanol-190 mM KH2PO4 water (87:13) as mobile phase at a flow rate of 0.6 ml/min, by LC-2010A (Shimadzu, Japan). […] The column eluant was monitored at 225 nm. […]
as §3, with “Data analysis was carried out with Microsoft Excel, Version 2000. Results were presented as the mean±S.D. (n=3-4 independent samples).” left out

[6] = With FMA, CP980 gel patch 750 mg/rat, 6 h application

With `C[N+](C)(C)C[C@H](O)CC(=O)[O-]` [LC, (3R)-3-hydroxy-4-trimethylazaniumylbutanoate] the “Skin penetration speed on applicator pre-treated skin” value [1] was 10 times faster, the “Permeation rates, FMA” value ([2]; porcine ear skin dermatomed ≈800 μm, FMA pretreatment, donor 640 mg/mL) was 11.08 ± 2.05 mg/cm^2/h and the “Permeation rates, Passive Diffusion” value ([2]; porcine ear skin dermatomed ≈800 μm, without FMA, donor 640 mg/mL) was 0.37 ± 0.04 mg/cm^2/h. The “Permeation rates of LC” value ([2]; donor concentration 650 mg/ml) was 11.08±2.05 mg/cm^2/h, the “Cumulative amount of LC” value ([2]; donor concentration 650 mg/ml) was 93.23±17.76 mg/cm^2 and the “Permeation rates of LC” value ([2]; donor concentration 800 mg/ml) was 11.80±1.50 mg/cm^2/h. The “Cumulative amount of LC” value ([2]; donor concentration 800 mg/ml) was 97.20±12.60 mg/cm^2, the bioavailability ([3]; iv, 200 mg) was 100% and the AUC(0-inf) ([3]; iv, 200 mg, Intravenous 200 mg/rat) was 3680 µg·h/mL. For the same molecule, the Cmax ([3]; po, 200 mg) was 40 ± 11 µg/mL, the Tmax ([3]; po, 200 mg) was 2 h and the bioavailability ([3]; po, 200 mg) was 8%. It also gave an AUC(0-inf) ([3]; po, 200 mg, Oral 200 mg/rat) of 309 µg·h/mL, a Cmax ([3]; topical or ocular, 750 mg) of 530 ± 86 µg/mL and a Tmax ([3]; topical or ocular, 750 mg) of 4 h. For the same molecule, the bioavailability ([3]; topical or ocular, 750 mg) was 22%, the AUC(0-inf) ([3]; topical or ocular, 750 mg, FMA delivery 750 mg/rat) was 3020 µg·h/mL and the “Cmax after FMA delivery relative to oral administration” value ([3]; FMA 750 mg/rat vs oral 200 mg/rat) was “about 13 fold”. For the same molecule, the “AUC0-∞” value ([3]; FMA delivery 750 mg/rat) was 3049 µg·h/mL, the Plasma concentration ([3]; at 3 min) was 3900 ± 420 µg/mL and the Plasma concentration ([3]; at 2 h) was 270 ± 50 µg/mL. The “Permeation rate through rat skin relative to human skin” value ([4]; after FMA-puncture) was 3.7 times, the “Permeation rate through rat skin relative to human skin” value ([4]; passive diffusion) was “about 13.8 times” and the ER (enhancement ratio, FMA permeation rates/passive permeation rates) ([4]; rat skin) was 16. For the same molecule, the “Permeation rates, FMA” value ([4]; rat skin full thickness, FMA pretreatment, donor 640 mg/mL) was 40.16 ± 3.97 mg/cm^2/h, the “Permeation rates, Passive Diffusion” value ([4]; rat skin full thickness, without FMA, donor 640 mg/mL) was 2.49 ± 0.40 mg/cm^2/h and the “Apparent dose of LC” value [6] was 200 mg/rat. The “The residual amount in patch” value [6] was 550 mg/rat, the “The residual amount in patch” value (Without FMA, CP980 gel patch 750 mg/rat, 6 h application) was 764 mg/rat and the “Difference between residual and initial content of patch” value (rat, in vivo) was “no significant difference”. The ER (enhancement ratio, FMA permeation rates/passive permeation rates) ([5]; human skin) was 59, the “Permeation rates, FMA” value ([5]; human skin dermatomed ≈800 μm, FMA pretreatment, donor 640 mg/mL) was 10.65 ± 2.12 mg/cm^2/h and the “Permeation rates, Passive Diffusion” value ([5]; human skin dermatomed ≈800 μm, without FMA, donor 640 mg/mL) was 0.18 ± 0.02 mg/cm^2/h.

Source: patent US9149618B2, “Built-in non-verbal instructional device integratable to applicators” (NANOMED SKINCARE, INC., priority 2010, dated 2015)
